Data on 18 molecules can be found in patent US20240360134A1, “PYRAZOLOPYRIMIDINES AND THEIR USES AS PDGFR INHIBITORS” (priority 2021, published 2024).

pIC50: −log10 of the molar value.

Experiment [1] concerns the target Tb-labeled inactive PDGFRβ (Homo sapiens (Human), UniProt P09619). The experiment in a line: biochemical. Type of experiment: binding. The note with it: read-out: PDGFR Lantha IC50.
In experiment [2] the target is His6-TEV-PDGFRβ (557-1016) (Homo sapiens (Human), UniProt P09619). The experiment can be described thus: PDGFRβ HTRF Assay. Type of experiment: biochemical. The note with it: 800 μM ATP, 0.5 μM TK-substrate biotin peptide, 30 min pre-incubation, 3 hours reaction; read-out: PDGFR HTRF IC50.
His6-TEV-PDGFRβ (557-1016), sequence (P09619 whole entry, looked up): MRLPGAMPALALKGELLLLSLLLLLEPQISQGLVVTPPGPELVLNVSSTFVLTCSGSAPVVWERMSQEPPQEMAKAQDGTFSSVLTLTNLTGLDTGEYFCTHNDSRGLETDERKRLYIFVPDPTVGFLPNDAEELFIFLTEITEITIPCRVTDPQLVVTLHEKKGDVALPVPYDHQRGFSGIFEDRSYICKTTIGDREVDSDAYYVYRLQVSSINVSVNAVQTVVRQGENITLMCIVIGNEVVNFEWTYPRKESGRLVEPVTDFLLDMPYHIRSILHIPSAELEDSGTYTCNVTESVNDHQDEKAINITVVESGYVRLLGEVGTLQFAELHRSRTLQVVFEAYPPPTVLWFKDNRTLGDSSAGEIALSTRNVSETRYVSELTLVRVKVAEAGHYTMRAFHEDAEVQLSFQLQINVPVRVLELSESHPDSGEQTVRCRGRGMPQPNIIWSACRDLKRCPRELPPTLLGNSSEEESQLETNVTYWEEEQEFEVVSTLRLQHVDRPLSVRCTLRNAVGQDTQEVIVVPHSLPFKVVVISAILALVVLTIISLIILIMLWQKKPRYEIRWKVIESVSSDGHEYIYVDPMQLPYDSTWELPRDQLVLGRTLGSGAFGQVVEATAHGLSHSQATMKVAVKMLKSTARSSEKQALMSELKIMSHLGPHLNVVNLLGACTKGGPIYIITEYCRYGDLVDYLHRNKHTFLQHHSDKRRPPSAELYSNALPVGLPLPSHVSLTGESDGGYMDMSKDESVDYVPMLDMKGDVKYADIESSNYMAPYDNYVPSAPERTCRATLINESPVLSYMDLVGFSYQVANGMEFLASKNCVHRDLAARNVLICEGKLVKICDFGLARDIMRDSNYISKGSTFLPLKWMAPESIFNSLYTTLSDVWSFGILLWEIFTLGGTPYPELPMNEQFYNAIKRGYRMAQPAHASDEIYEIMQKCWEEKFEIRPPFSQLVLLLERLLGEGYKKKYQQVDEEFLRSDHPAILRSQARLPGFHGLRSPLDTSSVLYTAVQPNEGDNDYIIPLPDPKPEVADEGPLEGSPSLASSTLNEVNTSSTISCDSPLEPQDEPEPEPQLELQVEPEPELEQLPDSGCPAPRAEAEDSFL
A further experiment concerns the target PDGFRβ (Rattus norvegicus (Rat), UniProt Q05030). The experiment can be described thus: PDGFRβ Cellular Assay (PDGFRb P-Y751 HTRF, PDGF-BB stimulated A10 cells). Type of experiment: cell-based. The conditions noted are these: A10 cells, 3 hours compound, 15 ng/mL PDGFbb for 10 minutes; read-out: PDGFR Cellular IC50. In short, it runs like this: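 Rat A10 cells plated overnight were treated with compound for 3 h, stimulated with rat PDGF-BB (working stock 100 ng/mL in 10% FBS medium) for 10 min, then lysed.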

Another experiment addresses VEGFR2, unphosphorylated (Homo sapiens (Human), UniProt P35968). The experiment can be described thus: VEGFR ADP GLO assay. The conditions noted are these: 5 nM VEGFR2, 1.2 mM ATP, 1 mg/mL Srctide, 180 min. Type of experiment: biochemical. In short, it runs like this:
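Luminescent ADP detection after a 180-min room-temperature reaction of srctide plus ATP (2 mg/mL and 2.4 mM in 2× mix) in pH 7.5 HEPES buffer with DTT, Pluronic and ovalbumin. Compounds, 11 points from 10 µM, first pre-incubated 30 min with enzyme (2× mix 10 nM). IC50s fitted after scaling between DMSO and 1 µM TAK-593 controls.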
For orientation: In ADP-Glo the light output rises with the ADP produced.

PDGFRβ, sequence (Q05030 whole entry, looked up): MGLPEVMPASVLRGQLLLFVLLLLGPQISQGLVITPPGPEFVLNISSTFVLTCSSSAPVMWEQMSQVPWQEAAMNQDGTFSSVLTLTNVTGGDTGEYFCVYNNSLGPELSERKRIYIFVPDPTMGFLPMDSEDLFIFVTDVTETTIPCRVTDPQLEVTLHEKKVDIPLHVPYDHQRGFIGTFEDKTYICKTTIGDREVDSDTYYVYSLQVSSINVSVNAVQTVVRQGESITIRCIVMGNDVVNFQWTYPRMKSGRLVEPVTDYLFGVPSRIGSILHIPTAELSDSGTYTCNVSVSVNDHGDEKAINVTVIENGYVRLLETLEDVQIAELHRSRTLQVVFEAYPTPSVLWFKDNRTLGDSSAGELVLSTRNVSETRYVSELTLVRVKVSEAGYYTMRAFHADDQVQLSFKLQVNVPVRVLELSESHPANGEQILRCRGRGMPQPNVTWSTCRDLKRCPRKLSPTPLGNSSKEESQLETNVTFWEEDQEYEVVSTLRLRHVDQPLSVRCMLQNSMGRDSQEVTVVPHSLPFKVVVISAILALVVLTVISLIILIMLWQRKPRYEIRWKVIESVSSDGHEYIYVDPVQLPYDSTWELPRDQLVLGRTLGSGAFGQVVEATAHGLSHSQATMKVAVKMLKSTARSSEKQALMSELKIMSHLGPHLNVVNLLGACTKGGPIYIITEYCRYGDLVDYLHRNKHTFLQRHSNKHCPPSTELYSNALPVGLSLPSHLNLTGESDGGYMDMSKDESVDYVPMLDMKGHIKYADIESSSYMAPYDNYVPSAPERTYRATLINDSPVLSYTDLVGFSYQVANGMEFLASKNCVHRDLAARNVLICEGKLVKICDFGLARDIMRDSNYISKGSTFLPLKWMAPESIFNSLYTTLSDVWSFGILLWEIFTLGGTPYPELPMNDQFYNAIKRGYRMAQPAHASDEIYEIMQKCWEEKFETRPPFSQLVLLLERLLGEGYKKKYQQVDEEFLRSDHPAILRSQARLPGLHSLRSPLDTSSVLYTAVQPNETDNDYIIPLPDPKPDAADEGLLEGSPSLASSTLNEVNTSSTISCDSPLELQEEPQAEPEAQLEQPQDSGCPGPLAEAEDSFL
Tb-labeled inactive PDGFRβ, sequence (P09619 whole entry, looked up): as the sequence (P09619 whole entry, looked up) above
VEGFR2, unphosphorylated, sequence (P35968 whole entry, looked up): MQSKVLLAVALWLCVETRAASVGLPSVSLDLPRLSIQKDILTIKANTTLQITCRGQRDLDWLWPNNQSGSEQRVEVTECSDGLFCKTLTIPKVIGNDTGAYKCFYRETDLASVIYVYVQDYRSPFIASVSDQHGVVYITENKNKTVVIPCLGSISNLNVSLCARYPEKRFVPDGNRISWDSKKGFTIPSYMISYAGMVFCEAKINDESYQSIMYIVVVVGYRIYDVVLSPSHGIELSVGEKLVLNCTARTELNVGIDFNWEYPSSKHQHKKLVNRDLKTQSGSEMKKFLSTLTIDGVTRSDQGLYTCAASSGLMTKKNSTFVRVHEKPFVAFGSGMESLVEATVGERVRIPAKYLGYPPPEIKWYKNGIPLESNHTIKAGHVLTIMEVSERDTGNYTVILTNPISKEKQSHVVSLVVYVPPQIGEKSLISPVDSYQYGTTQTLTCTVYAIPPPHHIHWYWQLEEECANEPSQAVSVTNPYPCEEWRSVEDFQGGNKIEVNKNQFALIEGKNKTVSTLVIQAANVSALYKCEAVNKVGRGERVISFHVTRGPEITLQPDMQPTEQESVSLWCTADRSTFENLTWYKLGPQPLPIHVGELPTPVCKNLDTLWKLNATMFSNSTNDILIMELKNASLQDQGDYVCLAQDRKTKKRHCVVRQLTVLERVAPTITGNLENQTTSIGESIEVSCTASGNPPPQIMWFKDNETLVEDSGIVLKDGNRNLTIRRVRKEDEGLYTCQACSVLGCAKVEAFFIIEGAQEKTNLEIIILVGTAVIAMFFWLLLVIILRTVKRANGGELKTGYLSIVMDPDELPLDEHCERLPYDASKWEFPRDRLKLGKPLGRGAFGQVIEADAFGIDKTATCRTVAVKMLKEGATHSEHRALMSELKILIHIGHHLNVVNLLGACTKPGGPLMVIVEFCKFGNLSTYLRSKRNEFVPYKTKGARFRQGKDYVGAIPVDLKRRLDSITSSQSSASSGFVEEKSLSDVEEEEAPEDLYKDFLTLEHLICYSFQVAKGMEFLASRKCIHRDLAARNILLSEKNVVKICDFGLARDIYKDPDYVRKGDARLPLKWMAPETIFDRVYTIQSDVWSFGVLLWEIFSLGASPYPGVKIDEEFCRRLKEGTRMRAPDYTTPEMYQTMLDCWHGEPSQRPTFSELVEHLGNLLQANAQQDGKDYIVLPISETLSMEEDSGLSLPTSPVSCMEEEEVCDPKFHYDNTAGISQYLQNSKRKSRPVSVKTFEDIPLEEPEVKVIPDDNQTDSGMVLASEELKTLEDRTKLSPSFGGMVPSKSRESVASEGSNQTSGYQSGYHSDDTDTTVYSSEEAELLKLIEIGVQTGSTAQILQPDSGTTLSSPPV

On to `Cc1ncc(C(=O)NCCC2CCCCC2)cc1Nc1nn(C)c2nc(Nc3ccc(CC(=O)O)cc3)ncc12` [Example 104, 2-(4-((3-((5-((2-cyclohexylethyl)carbamoyl)-2-methylpyridin-3-yl)amino)-1-methyl-1H-pyrazolo[3,4-d]pyrimidin-6-yl)amino)phenyl)acetic acid], for which the pIC50 – broadly, −log10 of the IC50, conventionally taken in molar units – in experiment [1] is 8.62; in experiment [2] it was 9.36; at PDGFRβ it was 5.63; against VEGFR2, unphosphorylated, 7.11.
Consider `COC1CN(CC(=O)Nc2cnc(C)c(Nc3nn(C)c4nc(Nc5cnn(C)c5)ncc34)c2)C1` [Example 137, 2-(3-methoxyazetidin-1-yl)-N-(6-methyl-5-((1-methyl-6-((1-methyl-1H-pyrazol-4-yl)amino)-1H-pyrazolo[3,4-d]pyrimidin-3-yl)amino)pyridin-3-yl)acetamide], for which the pIC50 in experiment [1] was 8.35; in experiment [2], 9.31; on PDGFRβ, 7.68; against VEGFR2, unphosphorylated it was less than 5.12.
Take `COCCN(CCNC(=O)c1cnc(C)c(Nc2nn(C)c3nc(Nc4cnn(C)c4)ncc23)c1)C1CCCC1` [Example 95, N-(2-(cyclopentyl(2-methoxyethyl)amino)ethyl)-6-methyl-5-((1-methyl-6-((1-methyl-1H-pyrazol-4-yl)amino)-1H-pyrazolo[3,4-d]pyrimidin-3-yl)amino)nicotinamide]: the pIC50 in experiment [1] is 8.47; in experiment [2], 9.28; on PDGFRβ, 8.00; against VEGFR2, unphosphorylated it was less than 5.12.
On the same counts, the results for `COCCn1cc(Nc2ncc3c(Nc4cc(NC(=O)CN5CCC6(CC6)C5)cnc4C)nn(C)c3n2)cn1` [Example 124, N-(5-((6-((1-(2-methoxyethyl)-1H-pyrazol-4-yl)amino)-1-methyl-1H-pyrazolo[3,4-d]pyrimidin-3-yl)amino)-6-methylpyridin-3-yl)-2-(5-azaspiro[2.4]heptan-5-yl)acetamide] are 8.80, 9.46, 8.37 and 5.31.
`Cc1ncc(C(=O)NCCN2CCCC2(C)C)cc1Nc1nn(C)c2nc(Nc3cccc(C4(C(=O)O)CC4)c3)ncc12` [Example 38, 1-(3-((3-((5-((2-(2,2-dimethylpyrrolidin-1-yl)ethyl)carbamoyl)-2-methylpyridin-3-yl)amino)-1-methyl-1H-pyrazolo[3,4-d]pyrimidin-6-yl)amino)phenyl)cyclopropanecarboxylic acid]: the pIC50 in experiment [1] is 7.82; in experiment [2], 8.80; at PDGFRβ, less than 5.52; on VEGFR2, unphosphorylated it was 6.15.
On to `Cc1ncc(C(=O)NCCN2CCC[C@@H]2C)cc1Nc1nn(C)c2nc(Nc3cncnc3)ncc12` [Example 3, (S)-6-methyl-5-((1-methyl-6-(pyrimidin-5-ylamino)-1H-pyrazolo [3,4-d]pyrimidin-3-yl)amino)-N-(2-(2-methylpyrrolidin-1-yl)ethyl)nicotinamide], for which the pIC50 was 8.17 in experiment [1]; 9.17 in experiment [2]; 6.95 on PDGFRβ; less than 5.12 against VEGFR2, unphosphorylated.
For `CC(=O)Nc1cncc(Nc2ncc3c(Nc4cc(C(=O)NCCN5CCCC5(C)C)cnc4C)nn(C)c3n2)c1` [Example 99, 5-((6-((5-acetamidopyridin-3-yl)amino)-1-methyl-1H-pyrazolo[3,4-d]pyrimidin-3-yl)amino)-N-(2-(2,2-dimethylpyrrolidin-1-yl)ethyl)-6-methylnicotinamide], the pIC50 in experiment [1] was 8.23; in experiment [2], 9.18; at PDGFRβ it was 6.86; against VEGFR2, unphosphorylated it was less than 5.12.
`Cc1ncc(C(=O)NCCN2CCCC2(C)C)cc1Nc1nn(C)c2cc(Nc3cnn(C)c3)ncc12` [Example 69, N-(2-(2,2-dimethylpyrrolidin-1-yl)ethyl)-6-methyl-5-((1-methyl-6-((1-methyl-1H-pyrazol-4-yl)amino)-1H-pyrazolo[4,3-c]pyridin-3-yl)amino)nicotinamide]: the pIC50 in experiment [1] was 7.32; in experiment [2] it was 8.90; on PDGFRβ, 7.43; against VEGFR2, unphosphorylated, less than 5.12.
Take `Cc1ncc(NC(=O)CN(CCF)C2CCCC2)cc1Nc1nn(C)c2nc(Nc3cnn(C)c3)ncc12` [Example 133, 2-(cyclopentyl(2-fluoroethyl)amino)-N-(6-methyl-5-((1-methyl-6-((1-methyl-1H-pyrazol-4-yl)amino)-1H-pyrazolo[3,4-d]pyrimidin-3-yl)amino)pyridin-3-yl)acetamide]: the pIC50 in experiment [1] was 8.62; in experiment [2], 9.36; at PDGFRβ, 8.39; against VEGFR2, unphosphorylated, 5.26.
Take `Cc1ncc(C(=O)NCCC2CCCCC2)cc1Nc1nn(C)c2nc(NCCC3CCCCC3)ncc12` [Example 108, N-(2-cyclohexylethyl)-5-((6-((2-cyclohexylethyl)amino)-1-methyl-1H-pyrazolo[3,4-d]pyrimidin-3-yl)amino)-6-methylnicotinamide]: the pIC50 is less than 5.52 in experiment [1]; 6.76 in experiment [2]; 5.64 on PDGFRβ; less than 5.12 at VEGFR2, unphosphorylated.
For `Cc1ncc(NC(=O)C2(C(=O)N3CCN(C)CC3)CC2)cc1Nc1nn(C)c2nc(Nc3cnn(C)c3)ncc12` [Example 116, N-(6-methyl-5-((1-methyl-6-((1-methyl-1H-pyrazol-4-yl)amino)-1H-pyrazolo[3,4-d]pyrimidin-3-yl)amino)pyridin-3-yl)-1-(4-methylpiperazine-1-carbonyl)cyclopropanecarboxamide], the pIC50 in experiment [1] is 7.23; in experiment [2], 8.58; at PDGFRβ, 6.14; at VEGFR2, unphosphorylated, less than 5.12.
Consider `COCCN(CCNC(=O)c1cnc(C)c(Nc2nn(C)c3nc(Nc4cnn(C)c4)ncc23)c1)C1CCC1` [Example 84, N-(2-(cyclobutyl(2-methoxyethyl)amino)ethyl)-6-methyl-5-((1-methyl-6-((1-methyl-1H-pyrazol-4-yl)amino)-1H-pyrazolo[3,4-d]pyrimidin-3-yl)amino)nicotinamide], for which the pIC50 is 8.44 in experiment [1]; 9.41 in experiment [2]; 7.95 at PDGFRβ; less than 5.12 at VEGFR2, unphosphorylated.
The matching figures for `Cc1ncc(C(=O)NCCN2CCCC2(C)C)cc1Nc1nn(C)c2nc(Nc3ccncc3)ncc12` [Example 28, N-(2-(2,2-dimethylpyrrolidin-1-yl)ethyl)-6-methyl-5-((1-methyl-6-(pyridin-4-ylamino)-1H-pyrazolo[3,4-d]pyrimidin-3-yl)amino)nicotinamide]: 8.42, 9.30, 7.40 and roughly 5.04.
With `Cc1ncc(NC(=O)CN2CCC[C@@H]2C)cc1Nc1nn(C)c2nc(Nc3ccnn3C)ncc12` [Example 143, (S)—N-(6-methyl-5-((1-methyl-6-((1-methyl-1H-pyrazol-5-yl)amino)-1H-pyrazolo[3,4-d]pyrimidin-3-yl)amino)pyridin-3-yl)-2-(2-methylpyrrolidin-1-yl)acetamide], the pIC50 is 7.93 in experiment [1]; 8.92 in experiment [2]; 8.13 at PDGFRβ; less than 5.12 against VEGFR2, unphosphorylated.
Regarding `Cc1ncc(C(=O)NCCC2CCCCC2)cc1Nc1nn(C)c2nc(Nc3ccc(CC#N)nc3)ncc12` [Example 105, 5-((6-((6-(cyanomethyl)pyridin-3-yl)amino)-1-methyl-1H-pyrazolo[3,4-d]pyrimidin-3-yl)amino)-N-(2-cyclohexylethyl)-6-methylnicotinamide], the pIC50 in experiment [1] was 8.57; in experiment [2] it was 9.23; at PDGFRβ, 8.01; at VEGFR2, unphosphorylated, 5.47.
Consider `Cc1ncc(NC(=O)CN2CC[C@H](C)C2)cc1Nc1nn(C)c2nc(Nc3cnn(C)c3)ncc12` [Example 140, (S)—N-(6-methyl-5-((1-methyl-6-((1-methyl-1H-pyrazol-4-yl)amino)-1H-pyrazolo[3,4-d]pyrimidin-3-yl)amino)pyridin-3-yl)-2-(3-methylpyrrolidin-1-yl)acetamide], for which the pIC50 in experiment [1] was 8.80; in experiment [2] it was 9.64; at PDGFRβ, 8.66; against VEGFR2, unphosphorylated, less than 5.12.
As to `Cc1ncc(C(=O)NCCN(C)C2CCOCC2)cc1Nc1nn(C)c2nc(Nc3cncnc3)ncc12` [Example 10, 6-methyl-N-(2-(methyl(tetrahydro-2H-pyran-4-yl)amino)ethyl)-5-((1-methyl-6-(pyrimidin-5-ylamino)-1H-pyrazolo[3,4-d]pyrimidin-3-yl)amino)nicotinamide], the pIC50 in experiment [1] was 8.00; in experiment [2], 9.20; on PDGFRβ, 6.69; against VEGFR2, unphosphorylated, less than 5.12.
For `COC(=O)C1(c2cccc(Nc3ncc4c(Nc5cc(C(=O)NCCN6CCCC6(C)C)cnc5C)nn(C)c4n3)c2)CC1` [Example 37, methyl 1-(3-((3-((5-((2-(2,2-dimethylpyrrolidin-1-yl)ethyl)carbamoyl)-2-methylpyridin-3-yl)amino)-1-methyl-1H-pyrazolo[3,4-d]pyrimidin-6-yl)amino)phenyl)cyclopropanecarboxylate], the pIC50 is 8.19 in experiment [1]; 9.10 in experiment [2]; 7.19 on PDGFRβ; 5.25 against VEGFR2, unphosphorylated.
